Here are results for 26 molecules from US20210355104A1, “ADENOSINE RECEPTOR BINDING COMPOUNDS” (Nikang Therapeuticsm Inc., priority 2018, published 2021).

“And” between values parts separate entries of the source, which are not always exact repeats. Identical values can stand only once. Bounds are passed on as bounds.

Chain of Adenosine A2A receptor (P29274 whole entry): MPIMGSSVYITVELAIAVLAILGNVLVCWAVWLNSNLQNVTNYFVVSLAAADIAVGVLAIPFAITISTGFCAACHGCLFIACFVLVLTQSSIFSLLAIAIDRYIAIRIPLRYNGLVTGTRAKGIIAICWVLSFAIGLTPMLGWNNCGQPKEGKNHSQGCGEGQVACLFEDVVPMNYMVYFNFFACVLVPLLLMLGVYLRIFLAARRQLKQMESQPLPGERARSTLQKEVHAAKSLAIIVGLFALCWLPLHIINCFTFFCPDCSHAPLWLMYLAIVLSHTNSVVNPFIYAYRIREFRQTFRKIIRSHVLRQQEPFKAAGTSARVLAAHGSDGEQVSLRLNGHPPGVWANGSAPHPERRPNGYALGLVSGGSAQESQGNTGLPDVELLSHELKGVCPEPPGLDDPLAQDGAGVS

One assay has as its target Adenosine A2A receptor (Homo sapiens, UniProt P29274). In words: cAMP assay in 293A cells stably expressing the adenosine A2A receptor (CGS21680 stimulation, HTRF). The settings on record: 293A cells stably expressing A2A receptor; 0.1% BSA; 1 uM CGS21680 stimulation; replicate values separated by /; read-out: cAMP (nM) 0.1% BSA, 1 uM CGS. Details: expressed in transfected cells; host or cells: 293A cells (Invitrogen, Cat# R705-07) infected with A2A-expressing lentivirus (custom packaged by Biosettia), puromycin selected. The assay is classed as cell-based. A general note: cAMP levels reflect the balance of adenylyl cyclase and phosphodiesterase activity.
`Cc1cc(-c2c(OCc3nc4cccc(C(C)(C)O)c4n3C)nc(N)nc2-c2ccc(F)cc2)cc(C(F)F)n1` [Example 396, 2-(2-(((2-amino-5-(2-(difluoromethyl)-6-methylpyridin-4-yl)-6-(4-fluorophenyl)pyrimidin-4-yl)oxy)methyl)-1-methyl-1H-benzo[d]imidazol-7-yl)propan-2-ol]: the IC50 was 869 nM and 634 nM.
Take `Cc1cc(-c2c(COc3cccc(C(C)C)n3)nc(N)nc2-c2ccc(F)cc2)cc(C(F)F)n1` [Example 397, 5-(2-(difluoromethyl)-6-methylpyridin-4-yl)-4-(4-fluorophenyl)-6-(((6-isopropylpyridin-2-yl)oxy)methyl)pyrimidin-2-amine]: the IC50 is 9.4 nM and 32 nM and 26 nM and 17 nM.
On the same count and under the same terms, the same measure for `Cc1cc(-c2c(OCc3cccc(C(C)(C)c4nn[nH]n4)n3)nc(N)nc2-c2ccc(F)cc2)cc(C(F)F)n1` [Example 400, 4-((6-(2-(2H-tetrazol-5-yl)propan-2-yl)pyridin-2-yl)methoxy)-5-(2-(difluoromethyl)-6-methylpyridin-4-yl)-6-(4-fluorophenyl)pyrimidin-2-amine]: 1000 nM and 1470 nM and 1440 nM; for `Cc1cc(-c2c(OCc3nc(C(C)(C)O)cn3C)nc(N)nc2-c2ccc(F)cc2)cc(C(F)F)n1` [Example 401, 2-(2-(((2-amino-5-(2-(difluoromethyl)-6-methylpyridin-4-yl)-6-(4-fluorophenyl)pyrimidin-4-yl)oxy)methyl)-1-methyl-1H-imidazol-4-yl)propan-2-ol]: 318 nM and 246 nM and 259 nM; for `Cc1cc(-c2c(OCc3nc(C(C)(C)O)cc4ccccc34)nc(N)nc2-c2ccc(F)cc2)cc(C(F)F)n1` [Example 404, 2-(1-(((2-amino-5-(2-(difluoromethyl)-6-methylpyridin-4-yl)-6-(4-fluorophenyl)pyrimidin-4-yl)oxy)methyl)isoquinolin-3-yl)propan-2-ol]: 1370 nM and 1800 nM.
On the same count and under the same terms, the same measure for `Cc1cc(-c2c(OCc3nc(OCC(=O)O)cc4ccccc34)nc(N)nc2-c2ccc(F)cc2)cc(C(F)F)n1` [Example 405, 2-((1-(((2-amino-5-(2-(difluoromethyl)-6-methylpyridin-4-yl)-6-(4-fluorophenyl)pyrimidin-4-yl)oxy)methyl)isoquinolin-3-yl)oxy)acetic acid]: 619 nM.
Still for that read-out and setting: under `Cc1cc(-c2c(OCc3nc(NCC(=O)O)cc4ccccc34)nc(N)nc2-c2ccc(F)cc2)cc(C(F)F)n1` [Example 406, (1-(((2-amino-5-(2-(difluoromethyl)-6-methylpyridin-4-yl)-6-(4-fluorophenyl)pyrimidin-4-yl)oxy)methyl)isoquinolin-3-yl)glycine] stands 719 nM.
Turning to `Cc1cc(-c2c(OCc3cccc(CNS(C)(=O)=O)n3)nc(N)nc2-c2ccc(F)cc2)cc(C(F)F)n1` [Example 409, N-((6-(((2-amino-5-(2-(difluoromethyl)-6-methylpyridin-4-yl)-6-(4-fluorophenyl)pyrimidin-4-yl)oxy)methyl)pyridin-2-yl)methyl) methanesulfonamide], the IC50 was 977 nM and 822 nM.
For `Cc1cc(-c2c(OCc3cccc(NS(C)(=O)=O)n3)nc(N)nc2-c2ccc(F)cc2)cc(C(F)F)n1` [Example 411, N-(6-(((2-amino-5-(2-(difluoromethyl)-6-methylpyridin-4-yl)-6-(4-fluorophenyl)pyrimidin-4-yl)oxy)methyl)pyridin-2-yl)methanesulfonamide], the IC50 was determined as 3190 nM.
Turning to `Cc1cc(-c2c(OCc3cccc(CN)n3)nc(N)nc2-c2ccc(F)cc2)cc(C(F)F)n1` [Example 412, 4-((6-(aminomethyl)pyridin-2-yl)methoxy)-5-(2-(difluoromethyl)-6-methylpyridin-4-yl)-6-(4-fluorophenyl)pyrimidin-2-amine], the IC50 was 503 nM and 747 nM.
Still for that read-out and setting: under `Cc1cc(-c2c(OCc3cccc(CNCC(=O)O)n3)nc(N)nc2-c2ccc(F)cc2)cc(C(F)F)n1` [Example 414, ((6-(((2-amino-5-(2-(difluoromethyl)-6-methylpyridin-4-yl)-6-(4-fluorophenyl)pyrimidin-4-yl)oxy)methyl)pyridin-2-yl)methyl)glycine] stands 2050 nM.
The same measure, in the same setting: under `Cc1cc(-c2c(OCc3nccc4c3nnn4C)nc(N)nc2-c2ccc(F)cc2)cc(C(F)F)n1` [Example 416, 5-(2-(difluoromethyl)-6-methylpyridin-4-yl)-4-(4-fluorophenyl)-6-((1-methyl-1H-[1,2,3]triazolo[4,5-c]pyridin-4-yl)methoxy)pyrimidin-2-amine] stands 498 nM and 615 nM.
The same measure, in the same setting: the same measure for `Cc1cc(-c2c(OCc3cc(C(C)(C)O)cc(C(C)(C)O)n3)nc(N)nc2-c2ccc(F)cc2)cc(C(F)F)n1` [Example 421, 2,2′-(6-(((2-amino-5-(2-(difluoromethyl)-6-methylpyridin-4-yl)-6-(4-fluorophenyl)pyrimidin-4-yl)oxy)methyl)pyridine-2,4-diyl)bis(propan-2-ol)]: 3420 nM.
Regarding `Cc1cc(-c2c(OCc3nccc4c3cnn4C)nc(N)nc2-c2ccc(F)cc2)cc(C(F)F)n1` [Example 423, 5-(2-(difluoromethyl)-6-methylpyridin-4-yl)-4-(4-fluorophenyl)-6-((1-methyl-1H-pyrazolo[4,3-c]pyridin-4-yl)methoxy)pyrimidin-2-amine], the IC50 is 435 nM and 732 nM.
Same read-out and setting: the same measure for `Cc1cc(-c2c(OCc3cc(N4CCOCC4)cc(C(C)(C)O)n3)nc(N)nc2-c2ccc(F)cc2)cc(C(F)F)n1` [Example 424, 2-(6-(((2-amino-5-(2-(difluoromethyl)-6-methylpyridin-4-yl)-6-(4-fluorophenyl)pyrimidin-4-yl)oxy)methyl)-4-morpholinopyridin-2-yl)propan-2-ol]: 5930 nM and 9830 nM.
As to `Cc1cc(-c2c(OCc3cc(C(C)(C)O)cc(-c4nnnn4C)n3)nc(N)nc2-c2ccc(F)cc2)cc(C(F)F)n1` [Example 426, 2-(2-(((2-amino-5-(2-(difluoromethyl)-6-methylpyridin-4-yl)-6-(4-fluorophenyl)pyrimidin-4-yl)oxy)methyl)-6-(1-methyl-1H-tetrazol-5-yl)pyridin-4-yl)propan-2-ol], the IC50 was 7980 nM and 6190 nM.
On the same count and under the same terms, under `Cc1cc(-c2c(OCc3cc(C(C)(C)O)cc(-c4nnn(C)n4)n3)nc(N)nc2-c2ccc(F)cc2)cc(C(F)F)n1` [Example 427, 2-(2-(((2-amino-5-(2-(difluoromethyl)-6-methylpyridin-4-yl)-6-(4-fluorophenyl)pyrimidin-4-yl)oxy)methyl)-6-(2-methyl-2H-tetrazol-5-yl)pyridin-4-yl)propan-2-ol] stands 5150 nM and 6010 nM; under `Cc1cc(-c2c(OCc3ccc(=O)n(C(C)(C)C(=O)O)n3)nc(N)nc2-c2ccc(F)cc2)cc(C(F)F)n1` [Example 428, 2-(3-(((2-amino-5-(2-(difluoromethyl)-6-methylpyridin-4-yl)-6-(4-fluorophenyl)pyrimidin-4-yl)oxy)methyl)-6-oxopyridazin-1(6H)-yl)-2-methylpropanoic acid], greater than 30000 nM; under `Cc1cc(-c2c(OCc3nccc4nn(C)cc34)nc(N)nc2-c2ccc(F)cc2)cc(C(F)F)n1` [Example 430, 5-(2-(difluoromethyl)-6-methylpyridin-4-yl)-4-(4-fluorophenyl)-6-((2-methyl-2H-pyrazolo[4,3-c]pyridin-4-yl)methoxy)pyrimidin-2-amine], 2460 nM.
`Cc1cc(-c2c(OCc3cccc(C(O)(CCO)CCO)n3)nc(N)nc2-c2ccc(F)cc2)cc(C(F)F)n1` [Example 432, 3-(6-(((2-amino-5-(2-(difluoromethyl)-6-methylpyridin-4-yl)-6-(4-fluorophenyl)pyrimidin-4-yl)oxy)methyl)pyridin-2-yl)pentane-1,3,5-triol]: the IC50 is 1260 nM.
Same read-out and setting: under `Cc1cc(-c2c(OCc3cc(C#N)cc(C(C)(C)O)n3)nc(N)nc2-c2ccc(F)cc2)cc(C(F)F)n1` [Example 435, 2-(((2-amino-5-(2-(difluoromethyl)-6-methylpyridin-4-yl)-6-(4-fluorophenyl)pyrimidin-4-yl)oxy)methyl)-6-(2-hydroxypropan-2-yl)isonicotinonitrile] stands 506 nM; under `Cc1cc(-c2c(OCc3cccc(CN(CC(=O)N(C)C)CC(=O)N(C)C)n3)nc(N)nc2-c2ccc(F)cc2)cc(C(F)F)n1` [Example 436, 2,2′-(((6-(((2-amino-5-(2-(difluoromethyl)-6-methylpyridin-4-yl)-6-(4-fluorophenyl)pyrimidin-4-yl)oxy)methyl)pyridin-2-yl)methyl)azanediyl)bis(N, N-dimethylacetamide)], 894 nM and 530 nM; under `Cc1cc(-c2c(OCc3nc(C(C)(C)O)ccc3C(C)(C)O)nc(N)nc2-c2ccc(F)cc2)cc(C(F)F)n1` [Example 438, 2,2-(6-(((2-amino-5-(2-(difluoromethyl)-6-methylpyridin-4-yl)-6-(4-fluorophenyl)pyrimidin-4-yl)oxy)methyl)pyridine-2,5-diyl)bis(propan-2-ol)], 3180 nM.

Still in this assay, the particulars now being: 293A-A2AR cells, 0.1% BSA, 1 uM CGS; read-out: cAMP (nM) 0.1% BSA, 1 uM CGS.
Regarding `Cc1cc(-c2c(OCc3cccc(C(C)(C)NCC(=O)O)n3)nc(N)nc2-c2ccc(F)cc2)cc(C(F)F)n1` [Example 393, (2-(6-(((2-amino-5-(2-(difluoromethyl)-6-methylpyridin-4-yl)-6-(4-fluorophenyl)pyrimidin-4-yl)oxy)methyl)pyridin-2-yl)propan-2-yl)glycine], the IC50 was 628 nM and 597 nM and 892 nM and 826 nM and 566 nM and 686 nM.
The same measure, in the same setting: under `Cc1cc(-c2c(OCc3cccc(C(C)(O)C(=O)O)n3)nc(N)nc2-c2ccc(F)cc2)cc(C(F)F)n1` (centres unmarked) [Example 394, 2-(6-(((2-amino-5-(2-(difluoromethyl)-6-methylpyridin-4-yl)-6-(4-fluorophenyl)pyrimidin-4-yl)oxy)methyl)pyridin-2-yl)-2-hydroxypropanoic acid] stands 865 nM and 496 nM; under `Cc1cc(-c2c(OCc3ncc(C(C)(O)C(=O)O)n3C)nc(N)nc2-c2ccc(F)cc2)cc(C(F)F)n1` (centres unmarked) [Example 395, 2-(2-(((2-amino-5-(2-(difluoromethyl)-6-methylpyridin-4-yl)-6-(4-fluorophenyl)pyrimidin-4-yl)oxy)methyl)-1-methyl-1H-imidazol-5-yl)-2-hydroxypropanoic acid], greater than 50000 nM.
